Experimental findings from patent US20230295152A1 (SENDA BIOSCIENCES, INC., priority 2019, published 2023) are described below.

SMILES strings stand for the structures.

In the assay the target is T1, AHR (Homo sapiens, UniProt P35869).
T1 construct: other cell line with a DRE-luciferase reporter stably transfected; endogenous in cells; host or cells: HepG2 AhR-Lucia reporter cells
T1 sequence (P35869 11-848): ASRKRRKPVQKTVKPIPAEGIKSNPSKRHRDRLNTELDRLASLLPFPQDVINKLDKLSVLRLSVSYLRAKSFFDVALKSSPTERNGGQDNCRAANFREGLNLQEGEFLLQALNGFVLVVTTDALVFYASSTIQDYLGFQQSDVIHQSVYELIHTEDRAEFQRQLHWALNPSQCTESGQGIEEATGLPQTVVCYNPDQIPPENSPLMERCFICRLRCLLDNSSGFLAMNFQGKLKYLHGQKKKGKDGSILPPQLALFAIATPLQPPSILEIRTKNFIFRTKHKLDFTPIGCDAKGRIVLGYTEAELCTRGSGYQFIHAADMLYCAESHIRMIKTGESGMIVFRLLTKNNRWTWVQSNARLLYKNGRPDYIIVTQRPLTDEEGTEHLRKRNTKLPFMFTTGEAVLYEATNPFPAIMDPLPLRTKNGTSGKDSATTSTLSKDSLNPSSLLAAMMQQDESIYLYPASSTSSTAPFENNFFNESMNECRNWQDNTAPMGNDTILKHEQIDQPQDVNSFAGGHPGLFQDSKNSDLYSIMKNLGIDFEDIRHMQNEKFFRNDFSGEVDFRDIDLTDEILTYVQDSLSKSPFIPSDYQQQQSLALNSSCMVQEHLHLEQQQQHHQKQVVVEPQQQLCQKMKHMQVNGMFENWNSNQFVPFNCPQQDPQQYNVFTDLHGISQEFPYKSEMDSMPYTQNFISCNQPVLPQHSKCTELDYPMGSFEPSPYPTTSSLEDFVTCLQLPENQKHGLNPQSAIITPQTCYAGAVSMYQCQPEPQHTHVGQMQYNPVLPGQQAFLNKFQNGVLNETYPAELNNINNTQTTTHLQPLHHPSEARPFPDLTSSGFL
In words: DRE-Luciferase Reporter Assay, HepG2 AhR-Lucia reporter cells. The assay is classed as cell-based. The conditions noted are these: with AHR activating ligand at EC50, read-out: HepG2-Luc IC50. The source says:
AHR binds to Dioxin Responsive Elements (DRE) upstream of genes that it activates. One measure of AHR activity is activation of a reporter gene, such as luciferase, downstream of one or multiple DRE elements. Luciferase activity will reflect activation and inhibition of AHR in the cells expressing his reporter. 20000 Human HepG2 liver carcinoma—AhR-Lucia reporter cells or Human HT29 colon adenocarcinoma—AhR reporter cells or other cell line with a DRE-luciferase reporter stably transfected were plated in Eagle's Minimal Essential Medium, 10% heat-inactivated FBS, 1× non-essential amino acids Pen-Strep (10,000 U/mL) and Normocin (100 ug/mL) in plates (96-well, 384-well or other plates) and incubated overnight at 37° C. in a CO2 incubator and treated with and without AhR antagonists at a log dilution starting at 100 uM.
After 1 hr that cells were plated an AHR activating ligand, such as TCDD, kynurenine, ITE (2-(1H-indole-3-ylcarbonyl)-4-thiazolecarboxylic methyl ester), VAF347, BNF (beta-naphthoflavone), FICZ (6-formylindolo(3,2-b) carbazole) or other AHR ligands at their specific EC50 concentration, were added to the cells with or without AHR antagonist.
Cells were incubated for 24 or 48 hours or another time point and then, supernatant was analyzed for determination of luciferase activity as a read-out of the AHR activation or inhibition. Luciferase was measured with the commercial kit QUANTI-Luc™ assay solution kit from Invivogen following the manufacturer's instructions.
The level of luciferase with only agonist ligand added was the maximum signal while the luciferase with […] was the minimum signal. IC50 values were determined as the concentration which inhibits half of the luciferase activity.
A general note: Reporter assays use an easily measured gene product as a stand-in for the process of interest.
As a reminder, the IC50 is the concentration that gives 50% inhibition. Take `C[C@@H](CO)n1cnc2c(-c3ccccn3)nc(-c3ccc(C(F)(F)F)nc3)cc2c1=O` [Compound 180, (S)-3-(1-hydroxypropan-2-yl)-8-(pyridin-2-yl)-6-(6-(trifluoromethyl)pyridin-3-yl)pyrido[3,4-d]pyrimidin-4(3H)-one]: the 50% inhibitory concentration (IC50) was in the range of 100 to 500 nM. Then `O=c1c2cc(-c3ccc(C(F)(F)F)nc3)nc(-c3cccnc3)c2ncn1-c1cccnc1` [Compound 118, 3,8-di(pyridin-3-y1)-6-(6-(trifluoromethyl)pyridin-3-yl)pyrido[3,4-d]pyrimidin-4(3H)-one], with less than 100 nM; and `O=c1c2cc(-c3cnc(C(F)(F)F)s3)nc(-c3cccnc3)c2ncn1[C@@H]1COC[C@H]1O` [Compound 173, 3-((3R,4S)-4-hydroxytetrahydrofuran-3-yl)-8-(pyridin-3-yl)-6-(2-(trifluoromethyl)thiazol-5-yl)pyrido[3,4-d]pyrimidin-4(3H)-one], with 100 to 500 nM; and `Cc1ccc(-c2cc3c(=O)n([C@@H](C)CO)cnc3c(-c3cccnc3)n2)nc1` [Compound 186, (S)-3-(1-hydroxypropan-2-yl)-6-(5-methylpyridin-2-yl)-8-(pyridin-3-yl)pyrido[3,4-d]pyrimidin-4(3H)-one], with less than 100 nM. In the case of `C[C@@H](C(=O)N(C)C)n1cnc2c(-c3cccnc3)nc(-c3ccc(C(F)(F)F)nc3)cc2c1=O` [Compound 157, (S)—N,N-dimethyl-2-(4-oxo-8-(pyridin-3-yl)-6-(6-(trifluoromethyl)pyridin-3-yl)pyrido[3,4-d]pyrimidin-3(4H)-yl)propenamide], the half-maximal inhibitory concentration (IC50) is less than 100 nM. Then `CC(C)(O)Cn1cnc2c(-c3cccnc3)nc(-c3cnc(C(F)(F)F)s3)cc2c1=O` [Compound 87], with less than 100 nM; and `C[C@@H](CO)n1cnc2c(N3CCCCC3)nc(-c3ccc(C(F)(F)F)nc3)cc2c1=O` [Compound 175, (S)-3-(1-hydroxypropan-2-yl)-8-(piperidin-1-yl)-6-(6-(trifluoromethyl)pyridin-3-yl)pyrido[3,4-d]pyrimidin-4(3H)-one], with less than 100 nM. `C[C@@H](CO)n1cnc2c(-c3cn[nH]c3)nc(-c3ccc(C(F)(F)F)nc3)cc2c1=O` [Compound 62]: the IC50 was less than 100 nM. Consider `C[C@@H](CO)n1cnc2c(C3CCCCC3)nc(-c3ccc(C(F)(F)F)cn3)cc2c1=O` [Compound 189, (S)-8-cyclohexyl-3-(1-hydroxypropan-2-yl)-6-(5-(trifluoromethyl)pyridin-2-yl)pyrido[3,4-d]pyrimidin-4(3H)-one], for which the IC50 was greater than 500 nM. Next, `Cn1cc(-c2cc3c(=O)n(CC(C)(C)O)cnc3c(-c3cnn(C)c3)n2)cn1` [Compound 19]: greater than 500 nM; `Cn1cc(-c2nc(-c3cnc(C(F)(F)F)s3)cc3c(=O)n([C@@H]4COC[C@H]4O)cnc23)cn1` [Compound 172, 3-((3R,4S)-4-hydroxytetrahydrofuran-3-yl)-8-(1-methyl-1H-pyrazol-4-yl)-6-(2-(trifluoromethyl)thiazol-5-yl)pyrido[3,4-d]pyrimidin-4(3H)-one]: less than 100 nM; `O=c1c2cc(-c3cccnc3)nc(-c3cccnc3)c2ncn1CC(O)C(F)(F)F` (stereo not shown) [Compound 10]: 100 to 500 nM. Next, `C[C@@H](CO)n1cnc2c(-c3ccc(=O)[nH]c3)nc(-c3ccc(Cl)cc3)cc2c1=O` [Compound 2]: 100 to 500 nM. Next, `CC(C)(O)Cn1cnc2c(-c3cccnc3)nc(-c3cccnc3C(F)(F)F)cc2c1=O` [Compound 80]: greater than 500 nM.

Regarding `C[C@@H](CO)n1cnc2c(C3=CCCCC3)nc(-c3ccc(C(F)(F)F)cn3)cc2c1=O` [Compound 188, (S)-8-(cyclohex-1-en-1-yl)-3-(1-hydroxypropan-2-yl)-6-(5-(trifluoromethyl)pyridin-2-yl)pyrido[3,4-d]pyrimidin-4(3H)-one], the IC50 lay within 100 to 500 nM. For `Cc1ccc(-c2cc3c(=O)n([C@@H](C)COCc4ccccc4)cnc3c(-c3cccc(F)c3)n2)cc1` [Compound 40, 3-[(1S)-2-benzyloxy-1-methyl-ethyl]-8-(3-fluorophenyl)-6-(p-tolyl)pyrido[3,4-d]pyrimidin-4-one], the concentration for half-maximal inhibition (IC50) was greater than 500 nM. Then `COCCc1cc2c(=O)n([C@@H](C)CO)cnc2c(-c2cccnc2)n1` [Compound 192, (S)-3-(1-hydroxypropan-2-yl)-6-(2-methoxyethyl)-8-(pyridin-3-yl)pyrido[3,4-d]pyrimidin-4(3H)-one], with greater than 500 nM. Next, `CC(C)(O)Cn1cnc2c(-c3cccnc3)nc(-c3cccnc3)cc2c1=O` [Compound 59]: greater than 500 nM; `O=c1[nH]cnc2c(-c3cccnc3)nc(-c3ccc(C(F)(F)F)nc3)cc12` [Compound 119, 8-(pyridin-3-y1)-6-(6-(trifluoromethyl)pyridin-3-yl)pyrido[3,4-d]pyrimidin-4(3H)-one]: less than 100 nM. Then `C[C@@H](CO)n1cnc2c(-c3cccnc3)nc(-c3ccc(C(=O)O)nc3)cc2c1=O` [Compound 97], with greater than 500 nM; and `COC(=O)[C@H](C)n1cnc2c(-c3cccnc3)nc(-c3ccc(C(F)(F)F)nc3)cc2c1=O` [Compound 127, Methyl (S)-2-(4-oxo-8-(pyridin-3-yl)-6-(6-(trifluoromethyl)pyridin-3-yl)pyrido[3,4-d]pyrimidin-3(4H)-yl)propanoate], with less than 100 nM; and `Cc1ncc(-c2cc3c(=O)n([C@@H](C)CO)cnc3c(-c3cccnc3)n2)cn1` [Compound 93], with 100 to 500 nM. With `C[C@@H](CO)n1cnc2c(-c3cncc(F)c3)nc(-c3cncc(F)c3)cc2c1=O` [Compound 78], the IC50 lay in the range of 100 to 500 nM.

In the case of `O=c1c2cc(-c3cnc(C(F)(F)F)s3)nc(-c3cccnc3)c2ncn1[C@H]1COC[C@@H]1O` [Compound 169, 3-((3S,4R)-4-hydroxytetrahydrofuran-3-yl)-8-(pyridin-3-yl)-6-(2-(trifluoromethyl)thiazol-5-yl)pyrido[3,4-d]pyrimidin-4(3H)-one], the 50% inhibitory concentration (IC50) was less than 100 nM. Then `Cc1ncsc1-c1cc2c(=O)n([C@@H](C)CO)cnc2c(-c2cccnc2)n1` [Compound 65], with 100 to 500 nM; and `CC(C)(O)Cn1cnc2c(-c3cnn(C(F)(F)F)c3)nc(-c3ccc(C(F)(F)F)nc3)cc2c1=O` [Compound 94], with less than 100 nM.

Turning to `O=c1c2cc(-c3ccc(Cl)cc3)nc(-c3cccnc3)c2ncn1CC(O)C(F)(F)F` (stereo not shown) [Compound 13], the IC50 was less than 100 nM. Next, `Cc1cc(C(F)(F)F)ncc1-c1cc2c(=O)n([C@@H](C)CO)cnc2c(-c2cccnc2)n1` [Compound 75]: 100 to 500 nM. On to `O=c1c2cc(-c3ccc(Cl)cc3)nc(-c3cccc(F)c3)c2ncn1C[C@H](O)C(F)(F)F` (stereo in doubt) [Compound 41], for which the IC50 was less than 100 nM.

As for `C[C@@H](CO)n1cnc2c(N3CCOCC3)nc(-c3ccc(C(F)(F)F)nc3)cc2c1=O` [Compound 178, (S)-3-(1-hydroxypropan-2-yl)-8-morpholino-6-(6-(trifluoromethyl)pyridin-3-yl)pyrido[3,4-d]pyrimidin-4(3H)-one], the IC50 is less than 100 nM.

For `C[C@@H](CO)n1cnc2c(C3=CCCN(C)C3)nc(-c3ccc(C(F)(F)F)nc3)cc2c1=O` [Compound 91], the IC50 lay in the range of 100 to 500 nM. Next, `Cc1ncccc1-c1nc(-c2ccc(C(F)(F)F)nc2)cc2c(=O)n([C@@H](C)CO)cnc12` [Compound 63]: 100 to 500 nM. Next, `C[C@@H](CO)n1cnc2c(-c3cnn(C)c3)nc(-c3ccccc3)cc2c1=O` [Compound 26]: 100 to 500 nM. In the case of `O=c1c2cc(-c3ccc(C(F)(F)F)nc3)nc(-c3cccnc3)c2ncn1C1CCCC1` [Compound 132, 3-cyclopentyl-8-(pyridin-3-yl)-6-(6-(trifluoromethyl)pyridin-3-yl)pyrido[3,4-d]pyrimidin-4(3H)-one], the IC50 is less than 100 nM.
